Several values for one entry are separate records, joined by “and”; a condition that tells them apart may be missing. Identical values can stand only once. Toxic doses and inconclusive results are not listed. Residues, ends and D or L forms follow the SMILES beside them.
System: BDF1 mice, P388 leukemia ip, median survival T/C
Experiment: NCI In Vivo Anticancer Drug Screen. Data for tumor model P388 Leukemia (intraperitoneal) in B6D2F1 (BDF1) mice
Settings: endpoint: median survival time, higher = longer survival
Outline: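 Antitumour effect was judged in vivo: survival in drug-treated mice, normalised to that of vehicle-dosed controls, gives the reported T/C.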

[1] = dose: 50.0 mg/kg/injection, schedule: Q01DX009 (ip), vehicle: saline with Tween-80
[2] = dose: 0.25 mg/kg/injection, schedule: Q01DX009 (ip), vehicle: saline
[3] = dose: 0.5 mg/kg/injection, schedule: Q01DX009 (ip), vehicle: saline
[4] = dose: 1.0 mg/kg/injection, schedule: Q01DX009 (ip), vehicle: saline
[5] = dose: 2.0 mg/kg/injection, schedule: Q01DX009 (ip), vehicle: saline
[6] = dose: 100.0 mg/kg/injection, schedule: Q04DX003 (ip), vehicle: saline with Tween-80
[7] = dose: 200.0 mg/kg/injection, schedule: Q04DX003 (ip), vehicle: saline with Tween-80
[8] = dose: 100.0 mg/kg/injection, schedule: Q04DX003 (ip), vehicle: Klucel (hydroxypropylcellulose) (HPC)
[9] = dose: 200.0 mg/kg/injection, schedule: Q04DX003 (ip), vehicle: Klucel (hydroxypropylcellulose) (HPC)
[10] = dose: 100.0 mg/kg/injection, schedule: Q01DX009 (ip), vehicle: saline with Tween-80
[11] = dose: 200.0 mg/kg/injection, schedule: Q01DX009 (ip), vehicle: saline with Tween-80
[12] = dose: 100.0 mg/kg/injection, schedule: Q04DX003 (ip), vehicle: saline
[13] = dose: 200.0 mg/kg/injection, schedule: Q04DX003 (ip), vehicle: saline

With `OC(CC1CCCCN1)c1cc(C(F)(F)F)nc2c(C(F)(F)F)cccc12` (centres undefined) the T/C [1] was 111 % of control.

`CCC(=O)OCC(=O)[C@]1(O)Cc2c(O)c3c(c(O)c2[C@@H](OC2CC(N)C(O)C(C)O2)C1)C(=O)c1c(OC)cccc1C3=O` (some centres undefined) was tested, and the T/C (dose: 0.12 mg/kg/injection, schedule: Q01DX009 (ip), vehicle: saline) was 170 % of control, the T/C [2] was 201 % of control and the T/C [3] was 219 % of control. For the same compound, the T/C [4] was 186 % of control, the T/C [5] was 241 % of control and the T/C (dose: 7.5 micrograms/kg/injection, schedule: Q01DX009 (ip), vehicle: saline) was 102 % of control. The T/C (dose: 15.0 micrograms/kg/injection, schedule: Q01DX009 (ip), vehicle: saline) was 107 % of control, the T/C (dose: 30.0 micrograms/kg/injection, schedule: Q01DX009 (ip), vehicle: saline) was 118 % of control and the T/C (dose: 60.0 micrograms/kg/injection, schedule: Q01DX009 (ip), vehicle: saline) was 170 % of control.

In the case of `CC12CCC3C(CCC4=CC(=O)C(C(O)(C(F)(F)F)C(F)(F)F)CC43C)C1CC(C(O)(C(F)(F)F)C(F)(F)F)C2=O` (centres undefined), the T/C (dose: 100.0 mg/kg/injection, schedule: Q01DX001 (sc), vehicle: steriod suspending solution) is reported as 100 % of control, the T/C (dose: 200.0 mg/kg/injection, schedule: Q01DX001 (sc), vehicle: steriod suspending solution) is reported as 100 % of control and the T/C (dose: 400.0 mg/kg/injection, schedule: Q01DX001 (sc), vehicle: steriod suspending solution) is reported as 95 % of control.

For `CCN1C=C/C(=C\C=C/c2cc[n+](CC)c3ccccc23)c2ccccc21`, the T/C (dose: 0.13 mg/kg/injection, schedule: Q01DX009 (ip), vehicle: saline) was 113 % of control, the T/C [2] was 160 % of control and the T/C (dose: 0.27 mg/kg/injection, schedule: Q04DX003 (ip), vehicle: saline) was 115 % of control. The T/C (dose: 0.4 mg/kg/injection, schedule: Q01DX009 (ip), vehicle: Klucel (hydroxypropylcellulose) (HPC)) was 150 % of control, the T/C (dose: 0.4 mg/kg/injection, schedule: Q04DX003 (ip), vehicle: saline) was 100 % of control and 115 % of control and the T/C [3] was 160 % of control. For the same compound, the T/C (dose: 0.62 mg/kg/injection, schedule: Q01DX009 (ip), vehicle: Klucel (hydroxypropylcellulose) (HPC)) was 154 % of control, the T/C (dose: 0.62 mg/kg/injection, schedule: Q04DX003 (ip), vehicle: saline) was 100 % of control and 110 % of control and the T/C (dose: 0.66 mg/kg/injection, schedule: Q04DX003 (ip), vehicle: saline) was 154 % of control. For the same compound, the T/C (dose: 0.82 mg/kg/injection, schedule: Q04DX003 (ip), vehicle: saline) was 155 % of control and the T/C (dose: 44.0 micrograms/kg/injection, schedule: Q01DX009 (ip), vehicle: saline) was 108 % of control.

`Cc1c(C)c(N)c(C)c(C)c1N` was tested, and the T/C (dose: 3.0 mg/kg/injection, schedule: Q01DX009 (ip), vehicle: Klucel (hydroxypropylcellulose) (HPC)) was 91 % of control, the T/C (dose: 3.0 mg/kg/injection, schedule: Q04DX003 (ip), vehicle: Klucel (hydroxypropylcellulose) (HPC)) was 108 % of control and the T/C (dose: 6.0 mg/kg/injection, schedule: Q01DX009 (ip), vehicle: Klucel (hydroxypropylcellulose) (HPC)) was 87 % of control. The T/C (dose: 6.0 mg/kg/injection, schedule: Q04DX003 (ip), vehicle: Klucel (hydroxypropylcellulose) (HPC)) was 100 % of control, the T/C (dose: 12.0 mg/kg/injection, schedule: Q01DX009 (ip), vehicle: Klucel (hydroxypropylcellulose) (HPC)) was 95 % of control and the T/C (dose: 12.0 mg/kg/injection, schedule: Q04DX003 (ip), vehicle: Klucel (hydroxypropylcellulose) (HPC)) was 91 % of control.

`N#C/C(=C\c1cc(Cl)cc(Cl)c1O)C(/C(C#N)=C/c1cc(Cl)cc(Cl)c1O)c1ccc2c(c1)OCO2` (centres undefined) was tested, and the T/C [6] was 91 % of control, the T/C [7] was 100 % of control and the T/C (dose: 400.0 mg/kg/injection, schedule: Q04DX003 (ip), vehicle: saline with Tween-80) was 108 % of control.

With `CCN(C(=O)Nc1cccc2ccccc12)c1ccccc1` the T/C (dose: 50.0 mg/kg/injection, schedule: Q01DX001 (ip), vehicle: other) was 95 % of control, the T/C (dose: 100.0 mg/kg/injection, schedule: Q01DX001 (ip), vehicle: other) was 95 % of control and the T/C (dose: 200.0 mg/kg/injection, schedule: Q01DX001 (ip), vehicle: other) was 100 % of control.

With `CCC(C)Nc1ccccc1` (centres undefined) the T/C (dose: 50.0 mg/kg/injection, schedule: Q04DX003 (ip), vehicle: Klucel (hydroxypropylcellulose) (HPC)) was 95 % of control, the T/C [8] was 100 % of control and the T/C [9] was 108 % of control.

For `CCn1c2ccccc2c2cc(NC(=O)N(CCCl)N=O)ccc21`, the T/C (dose: 100.0 mg/kg/injection, schedule: Q01DX009 (ip), vehicle: saline sonified) was 170 % of control, the T/C (dose: 200.0 mg/kg/injection, schedule: Q01DX009 (ip), vehicle: saline sonified) was 150 % of control and the T/C (dose: 400.0 mg/kg/injection, schedule: Q01DX009 (ip), vehicle: saline sonified) was 185 % of control.

In the case of `C=CC(=O)NC12CC3CC(CC(C3)C1)C2`, the T/C [6] is reported as 95 % of control and the T/C [7] is reported as 95 % of control.

In the case of `O=[N+]([O-])c1ccc(C(Br)C(Br)c2ccccc2Cl)cc1` (centres undefined), the T/C [8] is reported as 100 % of control, the T/C [9] is reported as 100 % of control and the T/C (dose: 400.0 mg/kg/injection, schedule: Q04DX003 (ip), vehicle: Klucel (hydroxypropylcellulose) (HPC)) is reported as 100 % of control.

With `CC(=O)NN(c1ccc([N+](=O)[O-])cc1)c1ccc([N+](=O)[O-])cc1` the T/C (dose: 25.0 mg/kg/injection, schedule: Q01DX009 (ip), vehicle: Klucel (hydroxypropylcellulose) (HPC)) was 109 % of control, the T/C (dose: 50.0 mg/kg/injection, schedule: Q01DX009 (ip), vehicle: Klucel (hydroxypropylcellulose) (HPC)) was 109 % of control and the T/C (dose: 100.0 mg/kg/injection, schedule: Q01DX009 (ip), vehicle: Klucel (hydroxypropylcellulose) (HPC)) was 100 % of control.

For `C[N+](C)(C)CCOC(=O)c1ccccc1`, the T/C [10] was 109 % of control, the T/C [11] was 117 % of control and the T/C (dose: 400.0 mg/kg/injection, schedule: Q01DX009 (ip), vehicle: saline with Tween-80) was 102 % of control.

In the case of `Cc1ncc(CO)c(CO)c1O`, the T/C [12] is reported as 122 % of control, the T/C [13] is reported as 113 % of control and the T/C (dose: 400.0 mg/kg/injection, schedule: Q04DX003 (ip), vehicle: saline) is reported as 95 % of control.

For `Cc1cc(C(=O)N/N=C/c2ccccc2O)c2cc(Br)ccc2n1`, the T/C (dose: 0.78 mg/kg/injection, schedule: Q01DX009 (ip), vehicle: saline with Tween-80) was 95 % of control, the T/C (dose: 1.56 mg/kg/injection, schedule: Q01DX009 (ip), vehicle: saline with Tween-80) was 95 % of control and the T/C (dose: 3.12 mg/kg/injection, schedule: Q01DX009 (ip), vehicle: saline with Tween-80) was 97 % of control.

In the case of `O=COC1CC2CC1C1CCCC21` (centres undefined), the T/C [1] is reported as 122 % of control, the T/C (dose: 50.0 mg/kg/injection, schedule: Q04DX003 (ip), vehicle: saline) is reported as 100 % of control and the T/C [10] is reported as 109 % of control. For the same compound, the T/C [12] was 96 % of control and the T/C [13] was 100 % of control.

`OC(CNc1ccc(Cl)c(Cl)c1)COc1ccc(Cl)cc1Cl` (centres undefined) was tested, and the T/C [1] was 101 % of control, the T/C [10] was 101 % of control and the T/C [11] was 104 % of control.

In the case of `CN(N=O)C(=O)NNC(=O)N(C)N=O`, the T/C (dose: 40.0 mg/kg/injection, schedule: Q04DX003 (ip), vehicle: saline with Tween-80) is reported as 105 % of control, the T/C (dose: 60.0 mg/kg/injection, schedule: Q04DX003 (ip), vehicle: saline with Tween-80) is reported as 115 % of control and the T/C (dose: 90.0 mg/kg/injection, schedule: Q04DX003 (ip), vehicle: saline with Tween-80) is reported as 105 % of control.

In the case of `O=C(Nc1cccc(Cl)c1)ON1CCCCC1`, the T/C [1] is reported as 106 % of control, the T/C [10] is reported as 97 % of control and the T/C [11] is reported as 100 % of control.

`CCOC(CN(Cc1ccc(OC)c(OCc2ccccc2)c1)S(=O)(=O)c1ccc(C)cc1)OCC` was tested, and the T/C (dose: 25.0 mg/kg/injection, schedule: Q01DX009 (ip), vehicle: water) was 89 % of control, the T/C (dose: 50.0 mg/kg/injection, schedule: Q01DX009 (ip), vehicle: water) was 99 % of control and the T/C (dose: 100.0 mg/kg/injection, schedule: Q01DX009 (ip), vehicle: water) was 92 % of control. For the same compound, the T/C (dose: 200.0 mg/kg/injection, schedule: Q01DX009 (ip), vehicle: water) was 112 % of control and the T/C (dose: 400.0 mg/kg/injection, schedule: Q01DX009 (ip), vehicle: water) was 99 % of control.

In the case of `CC1NC(=O)C2CCCN2C(=O)C2CCCN2C(=O)C(C(C)C)NC(=O)C(Cc2ccccc2)NC(=O)C(Cc2ccccc2)NC(=O)C2CCCN2C(=O)C2CCCN2C(=O)C(Cc2ccccc2)NC(=O)C(Cc2ccccc2)NC1=O` (centres undefined) (cyclo(AFFPPFFVPP); configuration not given here), the T/C [3] is reported as 101 % of control, the T/C [4] is reported as 104 % of control and the T/C [5] is reported as 104 % of control.

`NNC(=O)Cc1ccccc1` was tested, and the T/C (dose: 25.0 mg/kg/injection, schedule: Q04DX003 (ip), vehicle: saline sonified) was 110 % of control, the T/C (dose: 50.0 mg/kg/injection, schedule: Q04DX003 (ip), vehicle: saline sonified) was 105 % of control and the T/C (dose: 100.0 mg/kg/injection, schedule: Q04DX003 (ip), vehicle: saline sonified) was 110 % of control.

Reference: PubChem BioAssay AID328 (DTP/NCI, 2004)
